Consider 1 substance from US20240226130A1, “4'-THIONUCLEOSIDE ANALOGUES AND THEIR PHARMACEUTICAL USE” (Gilead Sciences, Inc., priority 2022, published 2024).

One data set deals with DNA polymerase α (Homo sapiens (Human), UniProt P09884). Briefly: DNA polymerase α single nucleotide incorporation (SNI) rate assay. The note with it: incorporation rate as a percentage relative to the corresponding natural dNTP; 50 μM analog. The data set is classed as biochemical. As for the experimental part:
Example 13: DNA Polymerase a Single Nucleotide Incorporation (SNI) Rate Assay
The DNA polymerase (pol) a SNI assay utilized an annealed ^32P labeled primer-template complex of D19 [5′-G TCC CTG TTC GGG CGC CAC-3′] and D36 A/G/T/C [3′-CGACCGTCCAGGGACAAGCCCGCG (TGT/CGT/ACG/GCG) ATC TCT-5′] where the templating base was chosen to base pair to the natural dNTP and analogs assayed. Reactions containing 50 mM Tris-Cl pH 8.0, 5 mM DTT, 0.2 mg/mL bSA, 200 nM D19/D36 mer and 10 mM MgCl2 and 5 nM DNA pol a were heated to 37° C. and initiated by addition of 50 μM (final) natural dNTP or analogs. At 0, 5, 10, 20, 40, and 60 min, 10 μL of the reaction mixture was removed and quenched with 10 μL of a gel loading buffer containing 100 mM EDTA, 80% formamide and bromophenol blue, and heated at 65° C. for 5 minutes. The samples were run on a 20% polyacrylamide gel (8 M urea) and the gel was exposed to a phosphorimager screen. The substrate and the incorporation products, D19 and D20-28, were quantified using a Typhoon Trio Imager and Image Quant TL Software. The nucleotide incorporation rate was calculated in Prism by fitting the product formation using the single exponential equation: [D20]=A*(1−e−k*t), where [D20] represents the amount (in nM) of the elongated product formed, t represents the reaction time, k represents the observed rate, and A represents the amplitude of the exponential. […]

Another data set concerns the target DNA polymerase γ (Homo sapiens (Human), UniProt P54098). Briefly: DNA polymerase γ single nucleotide incorporation (SNI) rate assay. The data set is classed as biochemical. The note with it: incorporation rate as a percentage relative to the corresponding natural dNTP; 50 μM analog. As for the experimental part:
Example 12: DNA Polymerase γ Single Nucleotide Incorporation (SNI) Rate Assay
The DNA polymerase (pol) γ SNI assay utilized an annealed ^32P labeled primer-template complex of D19 [5′-G TCC CTG TTC GGG CGC CAC-3′] and D36 A/G/T/C [3′-CGACCGTCCAGGGACAAGCCCGCG (TGT/CGT/ACG/GCG) ATC TCT-5′] where the templating base was chosen to base pair to the natural dNTP and analogs assayed. 20 nM DNA pol γ large subunit and 100 nM pol γ accessory subunit were preincubated on ice for 5 minutes and added to reaction mix containing 50 mM Tris-Cl pH 8.0, 5 mM DTT, 0.2 mg/mL bSA, 200 nM D19/D36 mer and 10 mM MgCl2. […] The substrate and the incorporation products, D19 and D20-28, were quantified using a Typhoon Trio Imager and Image Quant TL Software. The nucleotide incorporation rate was calculated in Prism by fitting the product formation using the single exponential equation: [D20]=A*(1−e−k*t), where [D20] represents the amount (in nM) of the elongated product formed, t represents the reaction time, k represents the observed rate, and A represents the amplitude of the exponential. […]

The nature of data set [1]: Rhesus pharmacokinetic study, oral compound 7 (plasma and PBMC). The note with it: for Intracellular concentration in PBMC: LOQ 0.16 μM compound 7, 0.04 μM triphosphate. As to the method:
The oral dose was administered via oral gavage, and after dose administration the dose apparatus was flushed with approximately 10 mL water before removal from the animal. Food was returned 4 hours after dosing. […] The K2EDTA tubes were kept chilled at approximately 5° C. until centrifugation (4° C., 5 minutes, 2000×g) to collect plasma. Centrifugation began within 1 hour of collection. Plasma samples were harvested, placed in micronic tubes, and maintained on dry ice prior to storage at −70° C. until analysis by LC-MS/MS. […] The sodium citrate tubes were then gently inverted 3-4 times and stored upright at ambient temperature until centrifugation to collect PBMCs. Centrifugation began as soon as possible following collection, within 6 hours after collection. The PBMCs were separated by centrifugation (30 minutes at 1500×g-1800×g, 18-20° C.), washed once with ice cold 0.9% NaCl and treated with red blood cell lysis buffer (3.5 g ammonium chloride and 0.036 g ammonium carbonate in 500 mL ultrapure water, prepared before first blood collection) for 10 minutes at ambient temperature. Subsequently, the cells were washed twice with ice cold 0.9% NaCl and the cell pellet maintained at −70° C. until analysis by LC-MS/MS.

Data set [2] can be described thus: Rhesus pharmacokinetic study, intravenous compound 7 (plasma and PBMC). The note with it: for Intracellular concentration in PBMC: LOQ 2.5 μM compound 7, 0.63 μM triphosphate. As to the method: Male Indian Origin Rhesus Monkeys were used for the pharmacokinetic studies. Studies were conducted under a protocol approved by IACUC. […] The intravenous dose was administered as an approximately 30-minute infusion, and after dose administration the dose apparatus was flushed with approximately 1 mL saline before removal from the animal. Food was returned 4 hours after dosing. […] The K2EDTA tubes were kept chilled at approximately 5° C. until centrifugation (4° C., 5 minutes, 2000×g) to collect plasma. Centrifugation began within 1 hour of collection. Plasma samples were harvested, placed in micronic tubes, and maintained on dry ice prior to storage at −70° C. until analysis by LC-MS/MS. […] The sodium citrate tubes were then gently inverted 3-4 times and stored upright at ambient temperature until centrifugation to collect PBMCs. Centrifugation began as soon as possible following collection, within 6 hours after collection. The PBMCs were separated by centrifugation (30 minutes at 1500×g-1800×g, 18-20° C.), washed once with ice cold 0.9% NaCl and treated with red blood cell lysis buffer (3.5 g ammonium chloride and 0.036 g ammonium carbonate in 500 mL ultrapure water, prepared before first blood collection) for 10 minutes at ambient temperature. Subsequently the cells were washed twice with ice cold 0.9% NaCl, the cell pellet resuspended in ice cold RIPA buffer (fortified with Pierce protease ad phosphatase inhibitor tablet), snap frozen in liquid nitrogen, and maintained at −70° C. until analysis by LC-MS/MS.

Chain of DNA polymerase α (P09884 whole entry): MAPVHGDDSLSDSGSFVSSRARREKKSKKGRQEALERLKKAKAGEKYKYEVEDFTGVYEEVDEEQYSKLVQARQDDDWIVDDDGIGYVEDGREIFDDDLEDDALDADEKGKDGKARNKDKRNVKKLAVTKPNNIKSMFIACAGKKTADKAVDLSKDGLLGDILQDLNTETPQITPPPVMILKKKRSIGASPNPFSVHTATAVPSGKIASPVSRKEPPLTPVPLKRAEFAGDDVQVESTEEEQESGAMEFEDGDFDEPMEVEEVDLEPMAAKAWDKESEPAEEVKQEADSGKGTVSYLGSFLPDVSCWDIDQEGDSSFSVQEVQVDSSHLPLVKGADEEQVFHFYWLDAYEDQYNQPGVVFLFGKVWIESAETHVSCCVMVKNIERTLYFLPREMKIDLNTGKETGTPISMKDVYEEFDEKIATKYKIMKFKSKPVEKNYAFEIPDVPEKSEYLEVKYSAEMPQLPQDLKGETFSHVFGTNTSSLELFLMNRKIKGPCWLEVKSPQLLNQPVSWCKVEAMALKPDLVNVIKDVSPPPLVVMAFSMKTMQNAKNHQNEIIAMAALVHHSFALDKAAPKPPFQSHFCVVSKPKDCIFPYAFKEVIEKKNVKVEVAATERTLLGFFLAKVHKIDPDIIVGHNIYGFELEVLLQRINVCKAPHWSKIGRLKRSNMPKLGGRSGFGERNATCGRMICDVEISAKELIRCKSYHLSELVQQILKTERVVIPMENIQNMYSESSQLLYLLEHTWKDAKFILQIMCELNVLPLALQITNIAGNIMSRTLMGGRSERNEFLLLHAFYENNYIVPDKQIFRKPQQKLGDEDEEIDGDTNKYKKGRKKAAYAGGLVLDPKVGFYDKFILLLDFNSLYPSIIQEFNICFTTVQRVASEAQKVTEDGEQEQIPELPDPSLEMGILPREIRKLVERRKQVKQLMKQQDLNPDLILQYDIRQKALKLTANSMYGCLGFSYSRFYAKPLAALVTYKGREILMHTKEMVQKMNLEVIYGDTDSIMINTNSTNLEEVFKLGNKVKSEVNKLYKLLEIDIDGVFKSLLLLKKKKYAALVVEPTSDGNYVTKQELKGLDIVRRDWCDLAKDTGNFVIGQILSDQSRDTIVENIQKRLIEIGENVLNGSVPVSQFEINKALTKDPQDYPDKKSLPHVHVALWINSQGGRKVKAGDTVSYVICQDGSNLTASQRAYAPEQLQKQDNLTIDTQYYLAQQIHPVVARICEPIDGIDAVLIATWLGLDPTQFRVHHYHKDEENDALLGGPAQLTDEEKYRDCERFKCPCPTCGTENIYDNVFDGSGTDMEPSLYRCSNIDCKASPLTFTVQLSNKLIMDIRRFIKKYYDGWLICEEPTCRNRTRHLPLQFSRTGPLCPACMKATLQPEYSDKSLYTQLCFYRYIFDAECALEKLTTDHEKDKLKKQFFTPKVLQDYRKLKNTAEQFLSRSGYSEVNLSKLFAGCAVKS
Chain of DNA polymerase γ (P54098 whole entry, looked up): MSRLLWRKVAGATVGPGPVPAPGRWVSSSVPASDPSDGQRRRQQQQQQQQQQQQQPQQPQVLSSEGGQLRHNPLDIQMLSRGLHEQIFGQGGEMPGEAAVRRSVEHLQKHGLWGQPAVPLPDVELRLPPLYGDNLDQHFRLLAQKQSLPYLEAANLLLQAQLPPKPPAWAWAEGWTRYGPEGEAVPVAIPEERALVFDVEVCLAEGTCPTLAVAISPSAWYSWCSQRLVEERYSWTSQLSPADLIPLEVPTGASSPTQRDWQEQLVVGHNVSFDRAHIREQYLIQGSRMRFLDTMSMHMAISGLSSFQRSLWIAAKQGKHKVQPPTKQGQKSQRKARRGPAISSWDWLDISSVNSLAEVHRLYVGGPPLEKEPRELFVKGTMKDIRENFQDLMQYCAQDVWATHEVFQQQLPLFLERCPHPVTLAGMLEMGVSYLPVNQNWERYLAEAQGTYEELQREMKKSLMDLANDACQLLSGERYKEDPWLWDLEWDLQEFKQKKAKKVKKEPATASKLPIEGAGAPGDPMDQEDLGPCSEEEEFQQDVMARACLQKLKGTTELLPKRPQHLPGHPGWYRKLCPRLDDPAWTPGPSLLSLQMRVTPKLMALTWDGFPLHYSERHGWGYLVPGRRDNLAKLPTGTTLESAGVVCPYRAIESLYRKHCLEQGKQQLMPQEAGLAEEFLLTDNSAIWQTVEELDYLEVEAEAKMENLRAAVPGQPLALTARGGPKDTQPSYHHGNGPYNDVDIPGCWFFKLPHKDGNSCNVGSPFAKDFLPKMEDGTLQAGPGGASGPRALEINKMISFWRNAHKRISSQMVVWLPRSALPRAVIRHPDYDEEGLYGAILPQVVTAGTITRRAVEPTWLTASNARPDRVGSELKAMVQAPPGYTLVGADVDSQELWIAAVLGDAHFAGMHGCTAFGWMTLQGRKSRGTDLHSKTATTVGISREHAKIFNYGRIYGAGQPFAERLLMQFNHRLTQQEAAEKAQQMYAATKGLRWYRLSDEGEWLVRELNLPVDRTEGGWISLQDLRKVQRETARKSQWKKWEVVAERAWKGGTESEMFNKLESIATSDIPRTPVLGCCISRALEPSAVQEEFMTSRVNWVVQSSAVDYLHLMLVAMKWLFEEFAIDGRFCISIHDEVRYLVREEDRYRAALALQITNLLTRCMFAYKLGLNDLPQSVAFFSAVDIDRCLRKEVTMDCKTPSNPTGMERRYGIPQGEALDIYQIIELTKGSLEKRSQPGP
Chain of DNA polymerase γ (Q9UHN1 whole entry partner, looked up): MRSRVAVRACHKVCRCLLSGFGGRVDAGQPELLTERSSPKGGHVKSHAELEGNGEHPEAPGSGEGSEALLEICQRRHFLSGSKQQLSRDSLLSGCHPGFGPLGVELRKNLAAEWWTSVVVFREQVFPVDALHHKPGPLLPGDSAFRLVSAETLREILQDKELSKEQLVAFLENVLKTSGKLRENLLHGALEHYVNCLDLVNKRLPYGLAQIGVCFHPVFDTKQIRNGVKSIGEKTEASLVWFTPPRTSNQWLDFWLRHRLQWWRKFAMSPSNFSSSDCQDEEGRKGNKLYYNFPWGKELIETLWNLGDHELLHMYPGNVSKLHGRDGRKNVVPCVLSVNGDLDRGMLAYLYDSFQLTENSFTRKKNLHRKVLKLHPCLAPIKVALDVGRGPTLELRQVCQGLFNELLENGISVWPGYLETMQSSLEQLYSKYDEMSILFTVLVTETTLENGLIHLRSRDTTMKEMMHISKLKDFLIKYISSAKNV

For “Hemitriethylamine ((2R,3S,5R)-5-(4-amino-5-fluoro-2-oxopyrimidin-1(2H)-yl)-2-ethynyl-3-hydroxytetrahydrothiophen-2-yl)methyl triphosphate [Compound 8]”, the “DNA Pol α SNIR” value at DNA polymerase α amounted to 2.6. The “DNA Pol γ SNIR” value at DNA polymerase γ was determined as 1.3. For the same substance, the “Intracellular concentration in PBMC” value in data set [1] (12 hr after oral 7.5 mg/kg compound 7) stood at 1.43 ± 0.45 µM; in data set [1] (24 hr after oral 7.5 mg/kg compound 7), 1.78 ± 0.57 µM; in data set [1] (48 hr after oral 7.5 mg/kg compound 7) it was 1.15 ± 0.76 µM; in data set [1] (72 hr after oral 7.5 mg/kg compound 7), 0.47 ± 0.22 µM; in data set [1] (120 hr after oral 7.5 mg/kg compound 7) it was 0.17 ± 0.01 µM; in data set [1] (168 hr after oral 7.5 mg/kg compound 7), 0.09 ± 0.02 µM. Moreover, the “Intracellular concentration in PBMC” value is 2.19 ± 0.31 µM in data set [2] (12 hr after intravenous 1 mg/kg compound 7); 1.34 ± 0.14 µM in data set [2] (24 hr after intravenous 1 mg/kg compound 7); 0.42 ± 0.06 µM in data set [2] (48 hr after intravenous 1 mg/kg compound 7); “BLQ” in data set [2] (72 hr after intravenous 1 mg/kg compound 7); “BLQ” in data set [2] (144 hr after intravenous 1 mg/kg compound 7); “BLQ” in data set [2] (168 hr after intravenous 1 mg/kg compound 7). Moreover, the “Calculated half-life of triphosphate metabolite” value in data set [1] (in PBMC, oral 7.5 mg/kg compound 7) is on record as “Calculated half-life of triphosphate metabolite: 43.1 ± 19.3 hours”. Further, the “Calculated half life of triphosphate metabolite” value in data set [2] (in PBMC, intravenous 1 mg/kg compound 7) was “Calculated half life of triphosphate metabolite: 19.8 ± 9.3 hours”.
